According to ChEMBL document CHEMBL1127553, “Derivatives of a novel cyclopeptolide. 2. Synthesis, activity against multidrug resistance in CHO and KB cells in vitro, and structure-activity relationships” (1994):

Legend:
Assay type in all cases: functional, Cricetulus griseus
CHO [1] = assay: The sensitizing capacity for colchicine treatment of multi drug resistance (MDR) CHO cell at concentration 1.0(mg/L).
CHO [2] = assay: The sensitizing capacity for colchicine treatment of multi drug resistance(MDR) in CHO cell at concentration 0.1(mg/L).
CHO [3] = assay: Sensitization of colchicine treated parental (PAR)CHO cells, measured at concentration 0.1(mg/L)
CHO [4] = assay: The sensitizing capacity for colchicine treatment of parental (PAR)CHO cells at concentration 1.0 (mg/L)

SMILES | Activity (CHO [1]) | Activity (CHO [2]) | Activity (CHO [3]) | Activity (CHO [4])
CC[C@@H](C)[C@H]1C(=O)NCC(=O)N(C)[C@@H](C(C)C)C(=O)N[C@@H](Cc2ccc(OC)cc2)C(=O)N[C@@H](C)C(=O)N2CCCC[C@H]2C(=O)N(C)[C@@H](C(C)C)C(=O)N[C@@H](C(C)C)C(=O)N(C)[C@H](CC(=O)OC(C)(C)C)C(=O)N(C)[C@@H]([C@@H](C)CC)C(=O)N1C | 144 | 5.2 | 4.6 | 6.2
CC[C@H](C)[C@H]1C(=O)NCC(=O)N(C)[C@@H](C(C)C)C(=O)N[C@@H](Cc2ccc(O)cc2)C(=O)O[C@H](C)C(=O)N2CCCC[C@H]2C(=O)N(C)[C@@H](C(C)C)C(=O)N[C@@H](C(C)C)C(=O)N(C)[C@@H](CC(=O)OCc2ccccc2)C(=O)N(C)[C@@H]([C@@H](C)CC)C(=O)N1C | 26 | 1.2 | 4.4 | 14
CC[C@@H](C)[C@H]1C(=O)NCC(=O)N(C)[C@@H](C(C)C)C(=O)N[C@@H](Cc2ccc(OC)cc2)C(=O)O[C@H](C)C(=O)N2CCCC[C@H]2C(=O)N(C)[C@@H](C(C)C)C(=O)N[C@@H](C(C)C)C(=O)N(C)[C@H](CC(=O)NC(C)(C)C)C(=O)N(C)[C@@H]([C@@H](C)CC)C(=O)N1C | 151 | 4.1 | 4.4 | 8.4
CC[C@H](C)[C@H]1C(=O)NCC(=O)N(C)[C@@H](C(C)C)C(=O)N[C@@H](Cc2ccc(OC)cc2)C(=O)O[C@H](C)C(=O)N2CCCC[C@H]2C(=O)N(C)[C@@H](C(C)C)C(=O)N[C@@H](C(C)C)C(=O)N(C)[C@@H](CC(=O)OCC23CC4CC(CC(C4)C2)C3)C(=O)N(C)[C@@H]([C@@H](C)CC)C(=O)N1C | 6.7 | 1 | 5.9 | 8.5
CC[C@H](C)[C@H]1C(=O)N(C)[C@@H]([C@@H](C)CC)C(=O)NCC(=O)N(C)[C@@H](C(C)C)C(=O)N[C@@H](Cc2ccc(OC)cc2)C(=O)O[C@H](C)C(=O)N2CCCC[C@H]2C(=O)N(C)[C@@H](C(C)C)C(=O)N[C@@H](C(C)C)C(=O)N(C)[C@H](CC(=O)N2CCC[C@H]2C(=O)OC(C)(C)C)C(=O)N1C | 222 | 10 | 6.8 | 8.2
CC[C@H](C)[C@H]1C(=O)N(C)[C@@H]([C@@H](C)CC)C(=O)NCC(=O)N(C)[C@@H](C(C)C)C(=O)N[C@@H](Cc2ccc(OC)cc2)C(=O)O[C@H](C)C(=O)N2CCCC[C@H]2C(=O)N(C)[C@@H](C(C)C)C(=O)N[C@@H](C(C)C)C(=O)N(C)[C@H](CN(C)C(C=O)CCCC(=O)OC(C)(C)C)C(=O)N1C (stereo partly specified) | 114 | 4.2 | 6.8 | 8.2
CC[C@H](C)[C@H]1C(=O)NCC(=O)N(C)[C@@H](C(C)C)C(=O)N[C@@H](Cc2ccc(OC)cc2)C(=O)O[C@H](C)C(=O)N2CCCC[C@H]2C(=O)N(C)[C@@H](C(C)C)C(=O)N[C@@H](C(C)C)C(=O)N(C)[C@@H](CC(=O)NC[Si](C)(C)C)C(=O)N(C)[C@@H]([C@@H](C)CC)C(=O)N1C | 163 | 3.3 | 6.7 | 11
CC[C@H](C)[C@H]1C(=O)NCC(=O)N(C)[C@@H](C(C)C)C(=O)N[C@@H](Cc2ccc(OC)cc2)C(=O)O[C@H](C)C(=O)N2CCCC[C@H]2C(=O)N(C)[C@@H](C(C)C)C(=O)N[C@@H](C(C)C)C(=O)N(C)[C@@H](CC(=O)OC)C(=O)N(C)[C@@H]([C@@H](C)CC)C(=O)N1C | 84 | 1.9 | 6.4 | 8.4
CC[C@@H](C)[C@H]1C(=O)NCC(=O)N(C)[C@@H](C(C)C)C(=O)N[C@@H](Cc2ccc(OC)cc2)C(=O)O[C@H](C)C(=O)N2CCCC[C@H]2C(=O)N(C)[C@@H](C(C)C)C(=O)N[C@@H](C(C)C)C(=O)N(C)[C@H](CC(=O)NC(c2ccccc2)c2ccccc2)C(=O)N(C)[C@@H]([C@@H](C)CC)C(=O)N1C | 147 | 6.4 | 7.5 | 13
CC[C@H](C)[C@H]1C(=O)NCC(=O)N(C)[C@@H](C(C)C)C(=O)N[C@@H](Cc2ccc(OC)cc2)C(=O)O[C@H](C)C(=O)N2CCCC[C@H]2C(=O)N(C)[C@@H](C(C)C)C(=O)N[C@@H](C(C)C)C(=O)N(C)[C@@H](CC(=O)NCc2ccco2)C(=O)N(C)[C@@H]([C@@H](C)CC)C(=O)N1C | 91 | 1.6 | 6.8 | 10
CC[C@@H](C)[C@H]1C(=O)NCC(=O)N(C)[C@@H](C(C)C)C(=O)N[C@@H](Cc2ccc(OC)cc2)C(=O)O[C@H](C)C(=O)N2CCCC[C@H]2C(=O)N(C)[C@@H](C(C)C)C(=O)N[C@@H](C(C)C)C(=O)N(C)[C@H](CC(=O)N[C@H](CO)C(C)C)C(=O)N(C)[C@@H]([C@@H](C)CC)C(=O)N1C | 144 | 3.2 | 7.6 | 9.8
CC[C@@H](C)[C@H]1C(=O)NCC(=O)N(C)[C@@H](C(C)C)C(=O)N[C@@H](Cc2ccc(OC)cc2)C(=O)O[C@H](C)C(=O)N2CCCC[C@H]2C(=O)N(C)[C@@H](C(C)C)C(=O)N[C@@H](C(C)C)C(=O)N(C)[C@H](CC(=O)N2CCCCC2)C(=O)N(C)[C@@H]([C@@H](C)CC)C(=O)N1C | 137 | 3.2 | 7.1 | 10
CC[C@H](C)[C@H]1C(=O)N(C)[C@@H]([C@@H](C)CC)C(=O)NCC(=O)N(C)[C@@H](C(C)C)C(=O)N[C@@H](Cc2ccc(OC)cc2)C(=O)O[C@H](C)C(=O)N2CCCC[C@H]2C(=O)N(C)[C@@H](C(C)C)C(=O)N[C@@H](C(C)C)C(=O)N(C)[C@H](CN(C)C(C=O)C/C=C/C(=O)OC(C)(C)C)C(=O)N1C (stereo partly specified) | 97 | 19 | 7.6 | 8.7
CC[C@H](C)[C@H]1C(=O)NCC(=O)N(C)[C@@H](C(C)C)C(=O)N[C@@H](CC(=O)OC)C(=O)O[C@H](C)C(=O)N2CCCC[C@H]2C(=O)N(C)[C@@H](C(C)C)C(=O)N[C@@H](C(C)C)C(=O)N(C)[C@@H](CC(=O)OC)C(=O)N(C)[C@@H]([C@@H](C)CC)C(=O)N1C | 3.5 | 1.1 | 1.9 | 5.6
CC[C@H](C)[C@H]1C(=O)NCC(=O)N(C)[C@@H](C(C)C)C(=O)N[C@@H](Cc2ccc(OC)cc2)C(=O)O[C@H](C)C(=O)N2CCCC[C@H]2C(=O)N(C)[C@@H](C(C)C)C(=O)N[C@@H](C(C)C)C(=O)N(C)[C@@H](CC(=O)OC2C3CC4CC(C3)CC2C4)C(=O)N(C)[C@@H]([C@@H](C)CC)C(=O)N1C (stereo partly specified) | 29 | 1.1 | 3.4 | 6.1
CC[C@@H](C)[C@H]1C(=O)NCC(=O)N(C)[C@@H](C(C)C)C(=O)N[C@@H](Cc2ccc(OC)cc2)C(=O)O[C@@H](C)C(=O)N2CCCC[C@H]2C(=O)N(C)[C@@H](C(C)C)C(=O)N[C@@H](C(C)C)C(=O)N(C)[C@H](CC(=O)NC2CCCCC2)C(=O)N(C)[C@@H]([C@@H](C)CC)C(=O)N1C | 286 | 72 | – | –
C=CCOc1ccc(C[C@@H]2NC(=O)[C@H](C(C)C)N(C)C(=O)CNC(=O)[C@H]([C@@H](C)CC)N(C)C(=O)[C@H]([C@@H](C)CC)N(C)C(=O)[C@H](CC(=O)OC(C)(C)C)N(C)C(=O)[C@H](C(C)C)NC(=O)[C@H](C(C)C)N(C)C(=O)[C@@H]3CCCCN3C(=O)[C@@H](C)OC2=O)cc1 | 9.6 | 1.5 | 5.8 | 11
CC[C@H](C)[C@H]1C(=O)NCC(=O)N(C)[C@@H](C(C)C)C(=O)N[C@@H](Cc2ccc(OC)cc2)C(=O)O[C@H](C)C(=O)N2CCCC[C@H]2C(=O)N(C)[C@@H](C(C)C)C(=O)N[C@@H](C(C)C)C(=O)N(C)[C@@H](CC(=O)OC23CC4CC(CC(C4)C2)C3)C(=O)N(C)[C@@H]([C@@H](C)CC)C(=O)N1C | 77 | 1.9 | 4.5 | 6
CC[C@H](C)[C@H]1C(=O)NCC(=O)N(C)[C@@H](C(C)C)C(=O)N[C@@H](Cc2ccc(OC(C)(C)C)cc2)C(=O)O[C@H](C)C(=O)N2CCCC[C@H]2C(=O)N(C)[C@@H](C(C)C)C(=O)N[C@@H](C(C)C)C(=O)N(C)[C@@H](CC(=O)OC(C)(C)C)C(=O)N(C)[C@@H]([C@@H](C)CC)C(=O)N1C | 300 | 28 | 6.7 | 9
CC[C@@H](C)[C@H]1C(=O)N(C)CC(=O)N(C)[C@@H](C(C)C)C(=O)N(C)[C@@H](Cc2ccc(OC)cc2)C(=O)O[C@H](C)C(=O)N2CCCC[C@H]2C(=O)N(C)[C@@H](C(C)C)C(=O)N(C)[C@@H](C(C)C)C(=O)N(C)[C@H](CC(=O)OC)C(=O)N(C)[C@@H]([C@@H](C)CC)C(=O)N1C | 5.5 | 1.1 | 1.3 | 4.6
CC[C@@H](C)[C@H]1C(=O)NCC(=O)N(C)[C@@H](C(C)C)C(=O)N[C@@H](Cc2ccc(OCc3ccccc3)cc2)C(=O)O[C@H](C)C(=O)N2CCCC[C@H]2C(=O)N(C)[C@@H](C(C)C)C(=O)N[C@@H](C(C)C)C(=O)N(C)[C@H](CC(=O)O)C(=O)N(C)[C@@H]([C@@H](C)CC)C(=O)N1C | 2.1 | 1.3 | 1.1 | 3.9
CC[C@@H](C)[C@H]1C(=O)NCC(=O)N(C)[C@@H](C(C)C)C(=O)N[C@@H](Cc2ccc(OC)cc2)C(=O)O[C@@H](C)C(=O)N2CCCC[C@H]2C(=O)N(C)[C@@H](C(C)C)C(=O)N[C@@H](C(C)C)C(=O)N(C)[C@H](CC(=O)N[C@H](C(=O)OC(C)(C)C)C(C)C)C(=O)N(C)[C@@H]([C@@H](C)CC)C(=O)N1C | 344 | 115 | 8.6 | 11
